For this test, the target named is GST-Xa-hAAK1 (Homo sapiens (Human), UniProt Q2M2I8). Nature of the test: AAK1 Kinase Assay.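 Note: each compound tested across an eleven-point concentration series, with IC50 obtained through non-linear regression fitting.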 It counts as biochemical. Particulars: bacterially expressed GST-Xa-hAAK1 3.5 nM; ATP 22 μM; peptide substrate 1.5 μM; 3 hours at room temperature; Caliper LabChip 3000.

What is called IC50 is the concentration needed to halve the response being measured. A higher IC50 goes with weaker potency in that assay.

GST-Xa-hAAK1, sequence (Q2M2I8 whole entry): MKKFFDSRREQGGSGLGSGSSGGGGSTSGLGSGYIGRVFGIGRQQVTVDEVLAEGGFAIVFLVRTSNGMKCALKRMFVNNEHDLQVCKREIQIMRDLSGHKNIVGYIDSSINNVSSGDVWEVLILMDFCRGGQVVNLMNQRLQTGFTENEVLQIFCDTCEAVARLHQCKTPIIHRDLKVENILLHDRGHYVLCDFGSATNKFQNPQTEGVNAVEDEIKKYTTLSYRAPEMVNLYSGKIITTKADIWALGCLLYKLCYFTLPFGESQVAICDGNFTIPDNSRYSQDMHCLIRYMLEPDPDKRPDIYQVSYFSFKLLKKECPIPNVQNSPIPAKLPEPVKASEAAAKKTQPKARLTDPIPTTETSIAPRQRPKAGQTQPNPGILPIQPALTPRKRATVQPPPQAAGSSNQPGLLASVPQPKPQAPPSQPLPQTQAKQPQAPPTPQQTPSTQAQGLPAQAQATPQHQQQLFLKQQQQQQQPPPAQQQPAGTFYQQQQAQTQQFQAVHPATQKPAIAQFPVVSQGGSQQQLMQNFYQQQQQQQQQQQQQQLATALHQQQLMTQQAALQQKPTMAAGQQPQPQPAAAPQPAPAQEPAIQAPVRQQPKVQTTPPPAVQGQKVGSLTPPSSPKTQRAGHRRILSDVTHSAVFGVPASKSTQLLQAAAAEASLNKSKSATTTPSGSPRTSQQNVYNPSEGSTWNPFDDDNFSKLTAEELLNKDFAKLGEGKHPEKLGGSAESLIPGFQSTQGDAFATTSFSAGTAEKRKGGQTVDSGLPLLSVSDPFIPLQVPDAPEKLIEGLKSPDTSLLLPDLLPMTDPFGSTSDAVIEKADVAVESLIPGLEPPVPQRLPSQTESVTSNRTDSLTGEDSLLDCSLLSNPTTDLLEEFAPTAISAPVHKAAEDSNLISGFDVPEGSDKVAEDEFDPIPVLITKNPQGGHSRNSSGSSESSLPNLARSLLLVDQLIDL
Procedure: The assays were performed in U-bottom 384-well plates. […] The reactions were initiated by the combination of bacterially expressed, GST-Xa-hAAK1 with substrates and test compounds. The reactions were incubated at room temperature for 3 hours and terminated by adding 60 μl of 35 mM EDTA buffer to each sample. […] Compounds were dissolved at 10 mM in dimethylsulfoxide (DMSO) and evaluated at eleven concentrations. IC50 values were derived by non-linear regression analysis.

Compound `CC(C)C[C@](C)(N)COc1ncc(-c2ccnc3ccccc23)cc1F` [Example 98, (S)-1-((3-fluoro-5-(quinolin-4-yl)pyridin-2-yl)oxy)-2,4-dimethylpentan-2-amine] gave an IC50 of 10 nM.
`CC(C)C[C@](C)(N)COc1ncc(-c2ccnc3cc(C#N)ccc23)cc1F` [Example 99, (S)-4-(6-((2-amino-2,4-dimethylpentyl)oxy)-5-fluoropyridin-3-yl)quinoline-7-carbonitrile]: 31 nM corresponded to half-maximal inhibition (IC50).
The compound `COC(=O)Nc1nccc(-c2ccc(OC[C@@](C)(N)CC(C)C)c(C#N)c2)c1F` [Example 100, (S)-methyl (4-(4-((2-amino-2,4-dimethylpentyl)oxy)-3-cyanophenyl)-3-fluoropyridin-2-yl)carbamate] registered an IC50 of 6.8 nM.
In turn, `Cc1ccc2c(-c3ccc(OC[C@@](C)(N)CC(C)C)c(C#N)c3)ccnc2c1` [Example 102, (S)-2-((2-amino-2,4-dimethylpentyl)oxy)-5-(7-methylquinolin-4-yl)benzonitrile] registered an IC50 of 1.3 nM.
The same measure for `Cc1nccc(-c2ccc(OC[C@@](C)(N)CC(C)C)c(C#N)c2)c1F` [Example 103, (S)-2-((2-amino-2,4-dimethylpentyl)oxy)-5-(3-fluoro-2-methylpyridin-4-yl)benzonitrile]: 0.68 nM.
The same measure for `CC(C)C[C@](C)(N)COc1ccc(-c2ccnc3ccccc23)cc1C#N` [Example 104, (S)-2-((2-amino-2,4-dimethylpentyl)oxy)-5-(quinolin-4-yl)benzonitrile]: 0.83 nM; for `Cc1cc(-c2ccc(OC[C@@](C)(N)CC(C)C)c(C#N)c2)c(F)cn1` [Example 105, (S)-2-((2-amino-2,4-dimethylpentyl)oxy)-5-(5-fluoro-2-methylpyridin-4-yl)benzonitrile]: 0.72 nM.
The same measure for `COC(=O)Nc1cc(-c2ccc(OC[C@@](C)(N)CC(C)C)c(C#N)c2)c(F)cn1` [Example 106, (S)-methyl (4-(4-((2-amino-2,4-dimethylpentyl)oxy)-3-cyanophenyl)-5-fluoropyridin-2-yl)carbamate]: 0.62 nM; for `Cc1cc(-c2cc(C)c(OC[C@@](C)(N)CC(C)C)c(F)n2)ccn1` [Example 107, (S)-1-((6-fluoro-2′,4-dimethyl-[2,4′-bipyridin]-5-yl)oxy)-2,4-dimethylpentan-2-amine]: 50 nM; for `COC(=O)Nc1cc(-c2ccc(OCC3(CC(C)C)CNC3)c(C)n2)ccn1` [Example 108, methyl (5-((3-isobutylazetidin-3-yl)methoxy)-6-methyl-[2,4′-bipyridin]-2′-yl)carbamate]: 106 nM.
`Cc1cc(-c2ccc(OC[C@@H](N)CC(C)C)c(C#N)c2)cnn1` [Example 109, (S)-2-((2-amino-4-methylpentyl)oxy)-5-(6-methylpyridazin-4-yl)benzonitrile] gave an IC50 of 340 nM.
With `CC(C)C[C@H](N)COc1ccc(-c2ccnc3ccccc23)cc1-c1ccno1` [Example 110, (S)-1-(2-(isoxazol-5-yl)-4-(quinolin-4-yl)phenoxy)-4-methylpentan-2-amine] the figure was 3.5 nM; with `Cc1nccc(-c2ccc(OC[C@@](C)(N)CC(C)C)c(C(F)(F)F)c2)c1C(=O)O` [Example 111, (S)-4-(4-((2-amino-2,4-dimethylpentyl)oxy)-3-(trifluoromethyl)phenyl)-2-methylnicotinic acid], 650 nM.
With `COC(=O)Nc1cc(-c2ccc(OC[C@@](C)(N)CC(C)C)c(CN(C)C)c2)ccn1` [Example 112, (S)-methyl (4-(4-((2-amino-2,4-dimethylpentyl)oxy)-3-((dimethylamino)methyl)phenyl)pyridin-2-yl)carbamate] the figure was 970 nM; with `COC(=O)Nc1cc(-c2ccc(OC[C@@](C)(N)CC(C)C)c(S(C)(=O)=O)c2)ccn1` [Example 113, (S)-methyl (4-(4-((2-amino-2,4-dimethylpentyl)oxy)-3-(methylsulfonyl)phenyl)pyridin-2-yl)carbamate], 43 nM.
With `Cc1cc(-c2ccc(OC[C@@](C)(N)CC(C)C)c(S(C)(=O)=O)c2)ccn1` [Example 114, (S)-2,4-dimethyl-1-(4-(2-methylpyridin-4-yl)-2-(methylsulfonyl)phenoxy)pentan-2-amine] the figure was 1400 nM; with `CC(C)C[C@](C)(N)COc1ccc(-c2ccnc3ccccc23)cc1S(C)(=O)=O` [Example 115, (S)-2,4-dimethyl-1-(2-(methylsulfonyl)-4-(quinolin-4-yl)phenoxy)pentan-2-amine], 13 nM.
`CC(C)C[C@](C)(N)COc1ccc(-c2ccnc3ccc(F)cc23)cc1C(F)F` [Example 116, (S)-1-(2-(difluoromethyl)-4-(6-fluoroquinolin-4-yl)phenoxy)-2,4-dimethylpentan-2-amine] had an IC50 of 0.93 nM.
In turn, `COC(=O)Nc1cc(-c2ccc(OC[C@@](C)(N)CC(C)C)c(C(F)F)n2)ccn1` [Example 117, (S)-methyl (5-((2-amino-2,4-dimethylpentyl)oxy)-6-(difluoromethyl)-[2,4′-bipyridin]-2′-yl)carbamate] displayed an IC50 of 1 nM.
Consider `CC(C)C[C@](C)(N)COc1ccc(-c2ccnc3ccccc23)nc1C(F)F` [Example 118, (S)-1-((2-(difluoromethyl)-6-(quinolin-4-yl)pyridin-3-yl)oxy)-2,4-dimethylpentan-2-amine], for which 0.85 nM corresponded to half-maximal inhibition (IC50).
Compound `Cc1cc(-c2ccc(OC[C@@](C)(N)CC(C)C)c(C(F)F)n2)ccn1` [Example 119, (S)-1-((6-(difluoromethyl)-2′-methyl-[2,4′-bipyridin]-5-yl)oxy)-2,4-dimethylpentan-2-amine] displayed an IC50 of 3.2 nM.
The same measure for `COC(=O)Nc1cc(-c2cc(C(F)F)c(OC[C@@](C)(N)CC(C)C)cn2)ccn1` [Example 120, (S)-methyl (5-((2-amino-2,4-dimethylpentyl)oxy)-4-(difluoromethyl)-[2,4′-bipyridin]-2′-yl)carbamate]: 0.51 nM; for `CC(C)C[C@](C)(N)COc1cnc(-c2ccnc3ccccc23)cc1C(F)F` [Example 121, (S)-1-((4-(difluoromethyl)-6-(quinolin-4-yl)pyridin-3-yl)oxy)-2,4-dimethylpentan-2-amine]: 0.3 nM; for `Cc1cc(-c2cc(C(F)F)c(OC[C@@](C)(N)CC(C)C)cn2)ccn1` [Example 122, (S)-1-((4-(difluoromethyl)-2′-methyl-[2,4′-bipyridin]-5-yl)oxy)-2,4-dimethylpentan-2-amine]: 0.51 nM.
With `CC(C)C[C@](C)(N)COc1ccc(-c2ccnc(C(F)F)c2)nc1C(F)F` [Example 123, (S)-1-((2′,6-bis(difluoromethyl)-[2,4′-bipyridin]-5-yl)oxy)-2,4-dimethylpentan-2-amine] the figure was 2.2 nM.
With `CC(C)C[C@](C)(N)COc1cnc(-c2ccnc(C(F)F)c2)cc1C(F)F` [Example 124, (S)-1-((2′,4-bis(difluoromethyl)-[2,4′-bipyridin]-5-yl)oxy)-2,4-dimethylpentan-2-amine] the figure was 1.2 nM; with `Cc1cc(-c2ccnc(C(F)F)c2)ncc1OC[C@@](C)(N)CC(C)C` [Example 125, (S)-1-((2′-(difluoromethyl)-4-methyl-[2,4′-bipyridin]-5-yl)oxy)-2,4-dimethylpentan-2-amine], 1.6 nM.
`CC(C)C[C@](C)(N)COc1ccc(-c2ccnc3ccc(F)cc23)nc1C(F)F` [Example 127, (S)-1-((2-(difluoromethyl)-6-(6-fluoroquinolin-4-yl)pyridin-3-yl)oxy)-2,4-dimethylpentan-2-amine] returned an IC50 of 6.2 nM. Compared with the last compound, the IC50 is about 3.9-fold higher.
The compound `CC(C)C[C@](C)(N)COc1ccc(-c2ccnc3cc(F)ccc23)nc1C(F)F` [Example 128, (S)-1-((2-(difluoromethyl)-6-(7-fluoroquinolin-4-yl)pyridin-3-yl)oxy)-2,4-dimethylpentan-2-amine] displayed an IC50 of 3.5 nM.
With `CC(C)C[C@](C)(N)COc1ccc(-c2ccnc3cc(F)cc(F)c23)nc1C(F)F` [Example 129] the figure was 1.4 nM.
For `CC(C)C[C@](C)(N)COc1cnc(-c2ccnc3cc(F)cc(F)c23)cc1C(F)F` [Example 130, (S)-1-((4-(difluoromethyl)-6-(5,7-difluoroquinolin-4-yl)pyridin-3-yl)oxy)-2,4-dimethylpentan-2-amine], the midpoint of inhibition, the IC50, lay at 1.4 nM. This counts as single-digit nanomolar.
With `CC(C)C[C@](C)(N)COc1cnc(-c2ccnc3cc(F)ccc23)cc1C(F)F` [Example 131, (S)-1-((4-(difluoromethyl)-6-(7-fluoroquinolin-4-yl)pyridin-3-yl)oxy)-2,4-dimethylpentan-2-amine] the figure was 0.82 nM; with `CC(C)C[C@](C)(N)COc1cnc(-c2ccnc3ccc(F)cc23)cc1C(F)F` [Example 132, (S)-1-((4-(difluoromethyl)-6-(6-fluoroquinolin-4-yl)pyridin-3-yl)oxy)-2,4-dimethylpentan-2-amine], 1.5 nM.
For `CC(C)C[C@](C)(N)COc1cnc(-c2ccnc3ccc(C(F)(F)F)cc23)cc1C(F)F` [Example 133], it took 0.92 nM to reach half-maximal inhibition (IC50).
With `CC(C)C[C@](C)(N)COc1cnc(-c2ccnc3ccc(OC(F)(F)F)cc23)cc1C(F)F` [Example 134, (S)-1-((4-(difluoromethyl)-6-(6-(trifluoromethoxy)quinolin-4-yl)pyridin-3-yl)oxy)-2,4-dimethylpentan-2-amine] the figure was 4.4 nM; with `CC(C)C[C@](C)(N)COc1ccc(-c2ccnc3cc(F)cc(F)c23)nc1Cl` [Example 135, (S)-1-((2-chloro-6-(5,7-difluoroquinolin-4-yl)pyridin-3-yl)oxy)-2,4-dimethylpentan-2-amine], 3.5 nM.
In turn, `Cc1nc(-c2ccnc3cc(F)ccc23)ccc1OC[C@@](C)(N)CC(C)C` [Example 137, (S)-1-((6-(7-fluoroquinolin-4-yl)-2-methylpyridin-3-yl)oxy)-2,4-dimethylpentan-2-amine] showed an IC50 of 27 nM.
`Cc1nc(-c2ccnc3ccc(F)cc23)ccc1OC[C@@](C)(N)CC(C)C` [Example 138, (S)-1-((6-(6-fluoroquinolin-4-yl)-2-methylpyridin-3-yl)oxy)-2,4-dimethylpentan-2-amine] registered an IC50 of 35 nM.

(Values after US9902722B2, “Biaryl kinase inhibitors” (BRISTOL-MYERS SQUIBB COMPANY, priority 2014, dated 2018).)
